Reference: US5288716A, “Use of pyridoxine derivatives in the prevention and treatment of hyperlipidaemia and atherosclerosis” (priority 1987, dated 1994)
Structures can show the parent of a compound that is named as a salt.

Key:
serum lipids = assay: Effect of vitamin B6 and a derivative thereof on serum lipids in rats after 12 weeks of treatment; assay type: in vivo; conditions: diet 2.5% cholesterol plus 0.25% cholic acid, 79 mg pyridoxine/kg or equimolar dose
Protocol: 1. Effect of vitamin B6 and a derivative thereof on serum lipids in rats after 12 weeks of treatment
Group A=rats fed with normal diet without cholesterol
Group B=rats fed with a diet containing 2.5% cholesterol plus 0.25% cholic acid
Group C=as group (B) plus 79 mg pyridoxine/kg bodyweight
Group D=as group (B) plus an equimolar (to pyridoxine) dose of a pyridoxamine derivative
20 animals per group; means ±SD; difference to group B in %

[1] = Tolerance of vitamin B6 and two derivatives in mice after a single oral dose of 5 g; conditions: mouse, in vivo, 5000 mg, single oral dose of 5 g, read-out: % death
Source text: 3. Tolerance of vitamin B6 and two derivatives in mice after a single oral dose of 5 g

lipid metabolism [2] = assay: Pyridoxine in rats (own experiments, with a positive control); assay type: in vivo; conditions: 79 mg/kg body weight
Source text: This was explicitly queried in DE 24 61 742 C2 (column 3, lines 35 ff). […] Pyridoxine was used separately in earlier experiments on animals in conjunction with lipid metabolism (see Frolova, J. A.: Vitamin B6 and lipid metabolism; Vopr. med. Khim. 89, 18. 339-346 (1972)). Its effect, however, is weak.

lipid metabolism [3] = conditions: earlier experiments on animals; cited from earlier work
aorta of rabbits = assay: Effect of vitamin B6 and the equimolar dose of a derivative thereof on the calcium and lipid content of the aorta of rabbits after 10 weeks; assay type: in vivo; conditions: control diet 2% cholesterol, pyridoxamine 2HCl 78 mg/kg, pyridoxine HCl 62 mg/kg
Source text: 2. Effect of vitamin B6 and the equimolar dose of a derivative thereof on the calcium and lipid content of the aorta of rabbits after 10 weeks of treatment as compared to a control group fed with a diet containing 2% cholesterol

[4] = test system: aortae of the rabbits from the heart to the bifurcation; assay: Aorta changes in hyperlipaemic rabbits after 10 weeks of treatment (120 mg/kg), relative to non-treated rabbits; assay type: in vivo
Protocol: The values are mean values of 18 rabbits and measured relative to a basis of non-treated rabbits.
The control group received a diet comprising 2% of cholesterol. In the group under treatment each rabbit received additionally 120 mg pyridoxamine.2 HCl/kg body weight. At the end of the test the aortae of the rabbits from the heart to the bifurcation were prepared and examined: […]

[5] = 2% cholesterol diet, 120 mg/kg body weight, 10 weeks, mean of 18, relative to non-treated

| Structure (SMILES) | mortality [1] | calcium in aorta, % difference to control (aorta of rabbits) | cholesterol in aorta, % difference to control (aorta of rabbits) | dry weight of aorta, % difference to control (aorta of rabbits) | total lipids in aorta, % difference to control (aorta of rabbits) | triglycerides in aorta, % difference to control (aorta of rabbits) | also measured |
| --- | --- | --- | --- | --- | --- | --- | --- |
| Cc1ncc(CO)c(CO)c1O [Pyridoxine] | 30% |  |  |  |  |  | LDL + VLDL-Cholesterol, difference to group B (serum lipids): -10%; Total serum cholesterol, difference to group B (serum lipids): -4%; LDL + VLDL-Cholesterol (serum lipids; mean (SD in next line)): 150; Total serum cholesterol (serum lipids; mean (SD in next line)): 204; effect in rats (lipid metabolism [2]): ineffective; effect on lipid metabolism (lipid metabolism [3]): weak |
| Cc1ncc(CO)c(C=O)c1O [Pyridoxal] | 100% |  |  |  |  |  |  |
| Cc1ncc(CO)c(CO)c1O [pyridoxine · HCl] |  | +21% | -2% | -1% | -3% | +6% |  |
| Cc1ncc(CO)c(CN)c1O [Pyridoxamine] | 0% |  |  |  |  |  |  |
| Cc1ncc(CO)c(CN)c1O [pyridoxamine.2 HCl] |  | -24% | -21% | -7% | -15% | -15% | decrease of calcium in aorta [4, 5]: 31%; decrease of cholesterol in aorta [4, 5]: 27%; decrease of lipids (total) in aorta [4, 5]: 18%; decrease of triglycerides in aorta [4, 5]: 17%; decrease of changes characteristic for atherosclerosis (thickening of the walls, lipid- and calcium uptake) ([4]; after 10 weeks): substantial decrease |
